Test results: patent US7244744B2, “Piperidines” (Icagen, Inc., priority 2001, dated 2007)

Molecular target: T1, PN3 (Homo sapiens, UniProt Q9Y5Y9)
T1 construct: expressed in transfected cells
Assay: 14C Guanidinium Ion Influx Binding Assay (flux assay)
Type: cell-based
Conditions: activity towards PN3, PN3 stably expressed in a host cell line, deltamethrine 10 μM
Description: 1.1 ^14C Guanidinium Ion Influx Binding Assay
PN3 stably expressed in a host cell line were maintained in DMEM with 5% fetal bovine serum and 300 μg/ml G-418. The cells were subcultured and grown to confluence in 96-well plates 24-48 h before each experiment. After the growth medium was removed, the cells were washed with warm buffer (25 mM Hepes-Tris, 135 mM choline chloride, 5.4 mM potassium chloride, 0.98 mM magnesium sulfate, 5.5 mM glucose, and 1 mg/ml BSA, pH 7.4) and incubated in buffer on a 36° C. slide wanner for approximately 10 minutes. Various concentrations of the test compounds or standard sodium channel blockers (10 μM) and then deltamethrine (10 μM) were added to each well. After the cells were exposed to deltamethrine for 5 minutes, 5 μM of ^14C-guanidinium was added, incubated with the radioligand (30-60 min), washed with ice-cold buffer, and dissolved in 0.1N sodium hydroxide. The radioactivity and the protein concentration of each cell lysate were determined by liquid scintillation counting and the protein assay using Pierce BCA reagent.

T1 sequence (Q9Y5Y9 whole entry, species assumed): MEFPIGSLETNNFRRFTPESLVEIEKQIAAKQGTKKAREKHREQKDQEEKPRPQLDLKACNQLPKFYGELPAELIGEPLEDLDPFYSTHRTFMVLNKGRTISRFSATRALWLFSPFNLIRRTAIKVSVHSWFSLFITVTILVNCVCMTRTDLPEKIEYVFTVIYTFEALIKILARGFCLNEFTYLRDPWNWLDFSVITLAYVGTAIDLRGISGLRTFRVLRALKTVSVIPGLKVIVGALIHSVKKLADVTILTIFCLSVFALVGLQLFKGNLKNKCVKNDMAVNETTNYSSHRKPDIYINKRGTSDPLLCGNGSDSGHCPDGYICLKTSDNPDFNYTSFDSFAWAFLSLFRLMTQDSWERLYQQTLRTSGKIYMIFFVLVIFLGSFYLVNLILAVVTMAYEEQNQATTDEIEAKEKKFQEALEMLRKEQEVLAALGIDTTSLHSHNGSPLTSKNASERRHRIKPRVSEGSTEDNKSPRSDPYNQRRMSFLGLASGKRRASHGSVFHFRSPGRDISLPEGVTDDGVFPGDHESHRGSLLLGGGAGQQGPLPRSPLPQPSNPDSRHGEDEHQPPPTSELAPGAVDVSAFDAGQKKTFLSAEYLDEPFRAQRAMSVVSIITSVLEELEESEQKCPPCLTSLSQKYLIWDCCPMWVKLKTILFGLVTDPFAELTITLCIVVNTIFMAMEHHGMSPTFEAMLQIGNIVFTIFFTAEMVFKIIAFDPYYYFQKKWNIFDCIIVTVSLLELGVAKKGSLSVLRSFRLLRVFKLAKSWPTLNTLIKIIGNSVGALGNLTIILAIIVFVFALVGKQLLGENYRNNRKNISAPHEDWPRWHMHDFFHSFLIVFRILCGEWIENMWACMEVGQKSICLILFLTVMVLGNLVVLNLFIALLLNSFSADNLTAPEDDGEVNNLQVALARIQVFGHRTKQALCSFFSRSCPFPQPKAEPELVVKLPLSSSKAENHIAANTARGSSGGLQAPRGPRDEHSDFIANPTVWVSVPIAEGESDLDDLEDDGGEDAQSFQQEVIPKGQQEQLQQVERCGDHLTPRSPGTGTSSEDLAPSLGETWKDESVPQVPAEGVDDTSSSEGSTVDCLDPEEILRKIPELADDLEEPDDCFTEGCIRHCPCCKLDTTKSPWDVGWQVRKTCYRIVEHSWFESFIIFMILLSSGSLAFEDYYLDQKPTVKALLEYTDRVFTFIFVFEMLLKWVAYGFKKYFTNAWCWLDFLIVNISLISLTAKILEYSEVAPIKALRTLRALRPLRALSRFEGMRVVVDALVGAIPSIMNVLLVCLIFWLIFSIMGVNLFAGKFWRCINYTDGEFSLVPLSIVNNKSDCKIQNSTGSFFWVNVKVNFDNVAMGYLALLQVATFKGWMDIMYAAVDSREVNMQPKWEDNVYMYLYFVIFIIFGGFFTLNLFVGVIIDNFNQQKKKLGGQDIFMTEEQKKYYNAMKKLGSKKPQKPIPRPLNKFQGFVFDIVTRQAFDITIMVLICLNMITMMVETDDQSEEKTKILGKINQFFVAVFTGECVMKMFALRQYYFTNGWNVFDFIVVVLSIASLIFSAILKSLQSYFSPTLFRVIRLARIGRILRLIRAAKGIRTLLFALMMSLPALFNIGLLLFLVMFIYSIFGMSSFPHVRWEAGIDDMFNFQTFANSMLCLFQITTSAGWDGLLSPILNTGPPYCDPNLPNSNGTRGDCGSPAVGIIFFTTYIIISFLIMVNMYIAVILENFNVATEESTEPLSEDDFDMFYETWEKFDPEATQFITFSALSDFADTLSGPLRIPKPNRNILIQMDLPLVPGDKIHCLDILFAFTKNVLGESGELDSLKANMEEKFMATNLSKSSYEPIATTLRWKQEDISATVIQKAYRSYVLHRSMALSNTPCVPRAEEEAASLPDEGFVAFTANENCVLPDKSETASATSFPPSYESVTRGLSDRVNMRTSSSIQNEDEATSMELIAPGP

In the case of `CCCCc1ccc(C(=O)N2CCC(n3c(=O)[nH]c4ccccc43)CC2)cc1` [Compound 34, 1-[1-(4-Butyl-benzoyl)-piperidin-4-yl]-1,3-dihydro-benzoimidazol-2-one], the IC50 is reported as 0.1 to 4 µM.
With `CCCCc1ccc(C(=O)N2CCC(n3c(=O)[nH]c4cc(F)ccc43)CC2)cc1` [Compound 160, 1-[1-(4-Butyl-benzoyl)-piperidin-4-yl]-5-fluoro-1,3-dihydro-benzoimidazol-2-one] the IC50 was 0.1 to 4 µM.
Work on `CCCCc1ccc(C(=O)N2CCC(n3c(=O)n(Cc4ccncc4)c4ccccc43)CC2)cc1` [Compound 198, 1-[1-(4-Butyl-benzoyl)-piperidin-4-yl]-3-pyridin-4-ylmethyl-1,3-dihydro-benzoimidazol-2-one] yielded an IC50 of 0.1 to 4 µM.
With `CCCCc1ccc(C(=O)N2CCC(n3c(C)nc4ccccc43)CC2)cc1` [Compound 203, (4-Butyl-phenyl)-[4-(2-methyl-benzoimidazol-1-yl)-piperidin-1-yl]-methanone] the IC50 was 4.1 to 10 µM.
In the case of `CCCCc1ccc(C(=O)N2CCC(n3c(=O)[nH]c4cccnc43)CC2)cc1` [Compound 200, 3-[1-(4-Butyl-benzoyl)-piperidin-4-yl]-1,3-dihydro-imidazo[4,5-b]pyridin-2-one], the IC50 is reported as 0.1 to 4 µM.
`CCCCc1ccc(C(=O)N2CC=C(n3c(=O)[nH]c4ccccc43)CC2)cc1` [Compound 181, 1-[1-(4-Butyl-benzoyl)-1,2,3,6-tetrahydro-pyridin-4-yl]-1,3-dihydro-benzoimidazol-2-one] gave an IC50 of 0.1 to 4 µM.
Compound `CCCCc1ccc(C(=O)N2CCC(n3c(NCc4ccccc4)nc4ccccc43)CC2)cc1` [Compound 300, [4-(2-Benzylamino-benzoimidazol-1-yl)-piperidin-1-yl]-(4-butyl-phenyl)-methanone] has an IC50 of 0.1 to 4 µM.
In the case of `CCCCc1ccc(C(=O)N2CCC(n3c(=O)n(C)c4ccccc43)CC2)cc1` [Compound 150, 1-[1-(4-Butyl-benzoyl)-piperidin-4-yl]-3-methyl-1,3-dihydro-benzoimidazol-2-one], the IC50 is reported as 0.1 to 4 µM.
Compound `CCCCc1ccc(C(=O)N2CC=C(n3c(=O)n(C)c4ccccc43)CC2)cc1` [Compound 206, 1-[1-(4-Butyl-benzoyl)-1,2,3,6-tetrahydro-pyridin-4-yl]-3-methyl-1,3-dihydro-benzoimidazol-2-one] has an IC50 of 0.1 to 4 µM.
In the case of `CCCCc1ccc(C(=O)N2CC=C(n3c(=O)n(Cc4ccccc4)c4ccccc43)CC2)cc1` [Compound 208, 1-Benzyl-3-[1-(4-butyl-benzoyl)-1,2,3,6-tetrahydro-pyridin-4-yl]-1,3-dihydro-benzoimidazol-2-one], the IC50 is reported as 0.1 to 4 µM.
Work on `CCCCCCNc1nc2ccccc2n1C1CCN(C(=O)c2ccc(CCCC)cc2)CC1` [Compound 188, (4-Butyl-phenyl)-[4-(2-hexylamino-benzoimidazol-1-yl)-piperidin-1-yl]-methanone] yielded an IC50 of 0.1 to 4 µM.
`CCCCc1ccc(C(=O)N2CCC(n3c(NCc4ccccn4)nc4ccccc43)CC2)cc1` [Compound 185, (4-Butyl-phenyl)-(4-{2-[(pyridin-2-ylmethyl)-amino]-benzoimidazol-1-yl}-piperidin-1-yl)-methanone] gave an IC50 of 4.1 to 10 µM.
`O=c1[nH]c2ccccc2n1C1CCN(S(=O)(=O)c2ccc3ccccc3c2)CC1` [Compound 304, 1-[1-(Naphthalene-2-sulfonyl)-piperidin-4-yl]-1,3-dihydro-benzoimidazol-2-one] showed an IC50 of 4.1 to 10 µM.
